Results taken from publication PMC12682947, “Identification of New KCNT1‐Epilepsy Drugs by In Silico, Cell, and Drosophila Modeling” (Annals of Neurology, 2025).
Structures can show the parent of a compound that is named as a salt.

Target: T1, WT KCNT1 channels (Homo sapiens, UniProt Q5JUK3)
T1 construct: YFP-6His; expressed in transfected cells; host or cells: HEK293T
T1 sequence (Q5JUK3 1-1235 isoform Q5JUK3-3): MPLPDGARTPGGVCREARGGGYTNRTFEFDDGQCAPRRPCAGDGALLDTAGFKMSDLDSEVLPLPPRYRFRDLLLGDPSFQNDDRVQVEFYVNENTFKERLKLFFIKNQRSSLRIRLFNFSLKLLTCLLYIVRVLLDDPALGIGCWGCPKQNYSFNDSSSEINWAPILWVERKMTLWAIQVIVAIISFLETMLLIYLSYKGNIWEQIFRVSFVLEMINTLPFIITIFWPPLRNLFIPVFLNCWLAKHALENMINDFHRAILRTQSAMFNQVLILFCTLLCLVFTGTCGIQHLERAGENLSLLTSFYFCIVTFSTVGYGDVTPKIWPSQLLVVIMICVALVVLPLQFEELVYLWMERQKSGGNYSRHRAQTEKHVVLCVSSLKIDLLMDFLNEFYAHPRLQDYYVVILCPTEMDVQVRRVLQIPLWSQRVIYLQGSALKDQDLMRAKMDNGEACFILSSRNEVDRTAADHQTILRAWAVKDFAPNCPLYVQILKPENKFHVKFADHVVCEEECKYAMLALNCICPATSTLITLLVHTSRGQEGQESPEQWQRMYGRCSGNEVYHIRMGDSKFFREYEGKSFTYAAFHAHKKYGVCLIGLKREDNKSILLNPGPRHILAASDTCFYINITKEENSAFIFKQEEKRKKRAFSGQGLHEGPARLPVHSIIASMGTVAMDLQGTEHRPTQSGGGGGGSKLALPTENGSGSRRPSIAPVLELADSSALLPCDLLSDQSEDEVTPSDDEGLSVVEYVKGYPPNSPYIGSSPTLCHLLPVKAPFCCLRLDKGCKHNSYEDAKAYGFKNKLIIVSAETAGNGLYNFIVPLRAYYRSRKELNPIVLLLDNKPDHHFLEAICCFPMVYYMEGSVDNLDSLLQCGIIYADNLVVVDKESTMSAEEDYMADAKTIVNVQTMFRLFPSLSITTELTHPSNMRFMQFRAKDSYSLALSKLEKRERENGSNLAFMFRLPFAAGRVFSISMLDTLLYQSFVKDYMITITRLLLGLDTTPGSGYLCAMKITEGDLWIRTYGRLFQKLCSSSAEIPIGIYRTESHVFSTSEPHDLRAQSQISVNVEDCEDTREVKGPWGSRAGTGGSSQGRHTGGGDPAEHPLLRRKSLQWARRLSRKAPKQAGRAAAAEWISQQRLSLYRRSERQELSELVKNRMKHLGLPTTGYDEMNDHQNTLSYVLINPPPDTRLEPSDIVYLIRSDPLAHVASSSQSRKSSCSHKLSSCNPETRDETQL
Test: Inside-out patch clamp of HEK293T cells expressing WT KCNT1 channels
Type: cell-based
Details: inside-out patches; for inhibition at 0.05 µM: HEK-293T, 50 nM, read-out: inhibition of WT human KCNT1 channel activity; for IC50: WT, mean ± SEM
Description: The CHO cells were cultured in Dulbecco's modified Eagle's Medium (ThermoFisher, UK) supplemented with 10% (v/v) fetal bovine serum, 50 U/ml penicillin and 0.05 mg/ml streptomycin, and incubated at 37°C in 5% CO2 atmosphere. For whole cell recording of WT/Y796H KCNT1, CHO cells were transiently co‐transfected with concatemeric WT/Y796H and EYFP, as described previously.[29] For electrophysiological experiments, cells were plated onto borosilicate glass cover slips and used 2 to 4 days later. Human embryonic kidney 293T cells (HEK293T) were cultured in the same manner, but with medium supplemented with 2 mM L‐glutamine, and 1% (v/v) nonessential amino acids. For excised inside‐out recording of homomeric WT or mutant YFP‐tagged KCNT1, HEK293T cells plated on glass cover slips were transfected using Attractene Transfection Reagent (Qiagen, Germany) according to the manufacturer's instructions and used 2 to 3 days later.
Inside‐out patch clamp recordings were made at room temperature (23°C) from transiently transfected HEK293T cells, as described previously.[11] The pipette solution contained, in mM, 140 NaCl, 4 KCl, 2 CaCl2, 2 MgCl2, and 10 HEPES adjusted to pH 7.4 with NaOH. After achieving the inside‐out configuration, the intracellular face of the membrane was constantly perfused with a solution containing, in mM, 35 NaCl, 110 KCl, 0.2 EGTA, and 10 HEPES adjusted to pH 7.3 with KOH. Drug stock solutions of 5 to 20 mM in DMSO were first diluted in ethanol (1:10) and then in electrophysiological solution. KCNT1 currents were recorded using 2 voltage protocols, depending on the number of active channels in the patch before drug application. Macroscopic currents (number of active channels > 15) were recorded in response to 100 ms voltage ramps between −120 and 120 mV applied every 2 seconds from a holding potential of −78 mV. The average current amplitudes between 0 and 40 mV were used for the analyses and constructing the concentration‐response curves. With a lower number of active channels in the patch (3–15), current traces were recorded in response to 15‐second voltage steps to −20, 0, and 20 mV from a holding potential of −78 mV. Currents recorded at each voltage and each drug concentration were averaged over the duration of the trace and normalized to the average amplitudes of the corresponding current traces in drug‐free solution. The normalized data for all 3 voltage steps were then averaged for each drug concentration and used to build the concentration‐response curves (see Supplementary Fig S3). To determine the IC50, data were fitted with the Hill equation, as described previously.[11] Single channel data were analyzed using Ana software developed by Dr Michael Pusch (Istituto di Biofisica, Genova, Italy; http://users.ge.ibf.cnr.it/pusch/programs-mik.htm). In patch clamp data “n” represents number of cells, and all experiments were repeated using cells from a minimum of 2 separate transfections.

SMILES | inhibition at 0.05 µM [%] | IC50 [nM] | inhibition of KCNT1 activity at 10 μM (in words)
O=C(OCCN1CCN(c2cccc(C(F)(F)F)c2)CC1)c1ccccc1Nc1ccnc2cc(C(F)(F)F)ccc12 [antrafenine] | > 60 | 12.6 ± 3.6 | 
CC(C)c1c(C(=O)Nc2ccccc2)c(-c2ccccc2)c(-c2ccc(F)cc2)n1CC[C@@H](O)C[C@@H](O)CC(=O)O [atorvastatin] |  | 1900 ± 600 | not fully inhibiting
Cc1c(O)cccc1C(=O)N[C@@H](CSc1ccccc1)[C@H](O)CN1C[C@H]2CCCC[C@H]2C[C@H]1C(=O)NC(C)(C)C [nelfinavir mesylate] | > 60 | 14.3 ± 2.6 | 
CNC(=O)c1cc(Oc2ccc(NC(=O)Nc3ccc(Cl)c(C(F)(F)F)c3)c(F)c2)ccn1 [regorafenib] |  |  | not fully inhibiting
